According to article PMC8963254, “Effects of Lysine N-ζ-Methylation in Ultrashort Tetrabasic Lipopeptides (UTBLPs) on the Potentiation of Rifampicin, Novobiocin, and Niclosamide in Gram-Negative Bacteria” (Antibiotics, 2022):
Converted amounts (≈) assume the structure as drawn. Read-outs that look alike come from different tables or passages of the source. Non-standard residues stand in square brackets, D forms with d. Residues, ends and D or L forms follow the SMILES beside them. *: point of attachment. Lys(Me) = CNCCCC[C@H](N)C(=O)O; Octanoyl = CCCCCCCC(=O)*

How the values were obtained:
[1] = system: A. baumannii AB92247; test: microbe, parasite or virus in culture; format: cell-based, Acinetobacter baumannii; conditions: AB92247, 18 h
In short: (§1)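 Minimum inhibitory concentration came from a CLSI broth dilution assay: 18 h at 37 °C, inoculum 5 × 10^5 CFU/mL final.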

[2] = system: A. baumannii AB027; test: microbe, parasite or virus in culture; format: cell-based, Acinetobacter baumannii; conditions: AB027, 18 h
In short: as §1

[3] = system: E. coli 94474; test: microbe, parasite or virus in culture; format: cell-based, Escherichia coli; conditions: 94474, 18 h
In short: as §1

[4] = system: E. coli 94393; test: microbe, parasite or virus in culture; format: cell-based, Escherichia coli; conditions: 94393, 18 h
In short: as §1

[5] = system: MRSA ATCC 33592; format: cell-based, Staphylococcus aureus; conditions: ATCC 33592, 18 h
Procedure: (§2) The in vitro antibacterial activity of the UTBLPs was assessed against wild-type and clinically isolated bacterial strains. To obtain the MIC of the compounds, the microbroth dilution susceptibility assay was performed according to the Clinical and Laboratory Standards Institute (CLSI, Wayne, PA, USA) guidelines and as previously described. Briefly, the compounds at varying concentrations were incubated with bacterial inoculum (5 × 10^5 CFU/mL final concentration) at 37 °C for 18 h. Growth in the form of turbidity was confirmed using an EMax Plus microplate reader (Molecular Devices, San Jose, CA, USA) at 590 nm.

[6] = system: S. aureus ATCC 29213; format: cell-based, Staphylococcus aureus; conditions: ATCC 29213, 18 h
Procedure: as §2

[7] = system: P. aeruginosa PAO1; format: cell-based, Pseudomonas aeruginosa; conditions: PAO1, 18 h
Procedure: as §2

[8] = system: E. cloacae 118564; format: cell-based, Enterobacter cloacae; conditions: for MICUTBLP: UTBLP alone
In short: (§3)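 Checkerboard synergy assay: antibiotic and OMP combined at varying concentrations with 5 × 10^5 CFU/mL inoculum (final), 37 °C, 18 h; growth read as turbidity at 590 nm. FICI = sum of FICs (MIC in combination / MIC alone); ≤0.5 synergistic, 0.5–4 additive, >4 antagonistic.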

[9] = system: K. pneumoniae 113250; test: microbe, parasite or virus in culture; format: cell-based, Klebsiella pneumoniae; conditions: 113250, 18 h
In short: as §1

[10] = system: E. faecium ATCC 27270; format: cell-based, Enterococcus faecium
In short: as §3

[11] = system: P. aeruginosa PA259-96196; format: cell-based, Pseudomonas aeruginosa; conditions: for MICUTBLP: UTBLP alone
In short: as §3

[12] = system: P. aeruginosa PA262-101856; format: cell-based, Pseudomonas aeruginosa; conditions: for MICUTBLP: UTBLP alone
In short: as §3

[13] = system: P. aeruginosa PAO1; format: cell-based, Pseudomonas aeruginosa; conditions: for MICUTBLP: UTBLP alone
In short: as §3

[14] = system: E. faecalis ATCC 29212; format: cell-based, Enterococcus faecalis
In short: as §3

[15] = system: MRSA ATCC 33592; format: cell-based, Staphylococcus aureus
In short: as §3

[16] = system: S. aureus ATCC 29213; format: cell-based, Staphylococcus aureus
In short: as §3

[17] = system: E. cloacae 118564; test: microbe, parasite or virus in culture; format: cell-based, Enterobacter cloacae; conditions: 118564, 18 h
In short: as §1

[18] = UTBLP in combination with novobiocin
[19] = UTBLP in combination with rifampicin
[20] = novobiocin in combination with the UTBLP
[21] = rifampicin in combination with the UTBLP
[22] = UTBLP alone, plate with chloramphenicol
[23] = UTBLP in combination with chloramphenicol
[24] = chloramphenicol in combination with the UTBLP

With CCCCCCCC(=O)NCCCC[C@H](NC(=O)CCCCCCC)C(=O)N[C@@H](CCCCNC)C(=O)N[C@@H](CCCCNC)C(=O)N[C@@H](CCCCNC)C(=O)N[C@@H](CCCCNC)C(N)=O [UTBLP 6] (Octanoyl-K(Octanoyl)[Lys(Me)][Lys(Me)][Lys(Me)][Lys(Me)]-NH2) the MIC [1] was 32 µg/mL (≈ 33.1 µM), the MIC [2] was > 128 µg/mL and the MIC [3] was > 128 µg/mL. The MIC [4] was 64 µg/mL (≈ 66.2 µM), the MIC [5] was >128 µg/mL and the MIC [6] was 128 µg/mL (≈ 132 µM). For the same compound, the MIC [7] was >128 µg/mL, the Interpretation ([8]; UTBLP + novobiocin) was “Synergy (FICI ≤ 0.5 is synergistic)” and the Interpretation ([8]; UTBLP + rifampicin) was “Synergy (FICI ≤ 0.5 is synergistic)”. For the same compound, the MICUTBLP ([8]; plate with novobiocin) was > 128 µg/mL, the MICUTBLP ([8]; plate with rifampicin) was > 128 µg/mL and the “MICUTBLP [MICcombo]” value [8, 18] was 16 µg/mL. For the same compound, the “MICUTBLP [MICcombo]” value [8, 19] was 16 µg/mL, the “MICantibiotic [MICcombo]” value [8, 20] was 1 µg/mL and the “MICantibiotic [MICcombo]” value [8, 21] was 0.5 µg/mL. The MIC [9] was > 128 µg/mL, the Interpretation ([10]; UTBLP + chloramphenicol) was “Additive (0.5 < x ≤ 4 is additive)” and the MICUTBLP [10, 22] was 64 µg/mL. For the same compound, the “MICUTBLP [MICcombo]” value [10, 23] was 4 µg/mL, the “MICchloramphenicol [MICcombo]” value [10, 24] was 4 µg/mL and the Interpretation ([11]; UTBLP + novobiocin) was “Synergy (FICI ≤ 0.5 is synergistic)”. The Interpretation ([11]; UTBLP + rifampicin) was “Synergy (FICI ≤ 0.5 is synergistic)”, the MICUTBLP ([11]; plate with novobiocin) was > 128 µg/mL and the MICUTBLP ([11]; plate with rifampicin) was > 128 µg/mL. The “MICUTBLP [MICcombo]” value [11, 18] was 16 µg/mL, the “MICUTBLP [MICcombo]” value [11, 19] was 16 µg/mL and the “MICantibiotic [MICcombo]” value [11, 20] was 128 µg/mL. For the same compound, the “MICantibiotic [MICcombo]” value [11, 21] was 2 µg/mL, the Interpretation ([12]; UTBLP + novobiocin) was “Synergy (FICI ≤ 0.5 is synergistic)” and the Interpretation ([12]; UTBLP + rifampicin) was “Additive (0.5 < x ≤ 4 is additive)”. For the same compound, the MICUTBLP ([12]; plate with novobiocin) was > 128 µg/mL, the MICUTBLP ([12]; plate with rifampicin) was > 128 µg/mL and the “MICUTBLP [MICcombo]” value [12, 18] was 16 µg/mL. The “MICUTBLP [MICcombo]” value [12, 19] was 16 µg/mL, the “MICantibiotic [MICcombo]” value [12, 20] was 128 µg/mL and the “MICantibiotic [MICcombo]” value [12, 21] was 256 µg/mL. For the same compound, the Interpretation ([13]; UTBLP + chloramphenicol) was “Synergy (FICI ≤ 0.5 is synergistic)”, the Interpretation ([13]; UTBLP + niclosamide) was “Synergy (FICI ≤ 0.5 is synergistic)” and the Interpretation ([13]; UTBLP + novobiocin) was “Synergy (FICI ≤ 0.5 is synergistic)”. The Interpretation ([13]; UTBLP + rifampicin) was “Synergy (FICI ≤ 0.5 is synergistic)”, the MICUTBLP ([13]; plate with chloramphenicol) was > 128 µg/mL and the MICUTBLP ([13]; plate with niclosamide) was > 128 µg/mL. For the same compound, the MICUTBLP ([13]; plate with novobiocin) was > 128 µg/mL, the MICUTBLP ([13]; plate with rifampicin) was > 128 µg/mL and the “MICUTBLP [MICcombo]” value [13, 23] was 16 µg/mL. The “MICUTBLP [MICcombo]” value ([13]; UTBLP in combination with niclosamide) was 16 µg/mL, the “MICUTBLP [MICcombo]” value [13, 18] was 16 µg/mL and the “MICUTBLP [MICcombo]” value [13, 19] was 16 µg/mL. For the same compound, the “MICantibiotic [MICcombo]” value [13, 24] was 2 µg/mL, the “MICantibiotic [MICcombo]” value ([13]; niclosamide in combination with the UTBLP) was 2 µg/mL and the “MICantibiotic [MICcombo]” value [13, 20] was 32 µg/mL. The “MICantibiotic [MICcombo]” value [13, 21] was 1 µg/mL, the Interpretation ([14]; UTBLP + chloramphenicol) was “Additive (0.5 < x ≤ 4 is additive)” and the MICUTBLP [14, 22] was 32 µg/mL. The “MICUTBLP [MICcombo]” value [14, 23] was 4 µg/mL, the “MICchloramphenicol [MICcombo]” value [14, 24] was 4 µg/mL and the Interpretation ([15]; UTBLP + chloramphenicol) was “Additive (0.5 < x ≤ 4 is additive)”. The MICUTBLP [15, 22] was > 128 µg/mL, the “MICUTBLP [MICcombo]” value [15, 23] was 0.25 µg/mL and the “MICchloramphenicol [MICcombo]” value [15, 24] was 64 µg/mL. The MICUTBLP [16, 22] was 128 µg/mL, the “MICUTBLP [MICcombo]” value [16, 23] was 16 µg/mL and the “MICchloramphenicol [MICcombo]” value [16, 24] was 4 µg/mL. For the same compound, the MIC [17] was > 128 µg/mL.
